Experimental data taken from patent publication US20190018003A1, “TUMOR DISCRIMINATION METHOD, DIAGNOSTIC AGENT FOR TUMOR, AND SENSITIZER FOR TUMOR DIAGNOSIS” (TOTO LTD., priority 2017, published 2019).

Tested on: T24 urinary bladder cancer cells
Experiment: Fluorescence enhancement in T24 cells by separate administration of hypericin and particles
Type: cell-based, human
Settings: Example 9, fluorescent dye = hypericin 1 μmol/l 1 h, then particles 0.001 w/v % 2 h, immediately after observation light irradiation
Description: A solution (100 mmol/l) of hypericin (FUJIFILM Wako Pure Chemical Corporation) in dimethyl sulfoxide (FUJIFILM Wako Pure Chemical Corporation) as a solvent was mixed into an MEM medium (MEM, GlutaMAX™ supplement (Thermo Fisher Scientific)) to form a 1 μmol/l hypericin solution. Further, an aqueous solution of light scattering particles (2) (ii) was mixed into an MEM medium to form a 0.001 w/v % light scattering particle solution. Evaluation was performed as follows. The medium of the T24 cells on a 6-well plate, obtained in Example 3, was removed by an aspirator, and thereto was added 2 ml of MEM medium (Thermo Fisher Scientific). Once again, the MEM medium was removed by an aspirator, thereto was added 2 ml of hypericin solution, and the system was cultured under conditions of 3TC and 5 v/v % CO2 for 1 hour. Then, the hypericin solution of the cells on the 6-well plate was removed by an aspirator, to the residue was added 2 ml of the light scattering particle solution, and the system was cultured under conditions of 3TC and 5 v/v % CO2 for 2 hours. […] Detection of fluorescence was performed in the same manner as in Example 5 by using an inverted fluorescence microscope and, from the images acquired, fluorescence intensities were obtained and relative fluorescence intensities were calculated.

SMILES: Cc1cc(O)c2c(=O)c3c(O)cc(O)c4c5c(O)cc(O)c6c(=O)c7c(O)cc(C)c8c1c2c(c34)c(c78)c65 [hypericin]
- Relative fluorescence intensity: 1.0
